# Experiment: Waters ACQUITY UPLC BEH C18, 100 × 2.1 mm, 1.7 µm, 40 °C, 0.3 to 0.4 mL/min, estimated dead time 0.63 min; A: water + 0.1% formic acid; B: methanol + 0.1% formic acid; gradient (min/%B) 0/0.5 0.1/0.5 10/80 10.1/99.5 12/99.5
# Conditions: stereoisomer not certain
row,LC retention time [min],SMILES
1,4.67,COc1ccc(-c2coc3cc(OC4OC(COC(=O)CC5CCNCC5)C(O)C(O)C4O)ccc3c2=O)cc1 (stereo not drawn)
2,4.65,CCC(C)C(=O)OC1C(O)C2C(CN3CC(C)CCC3C2(C)O)C2CC34OC5(O)C(OC(=O)C(C)(O)C(C)O)CCC3(C)C5CC(O)C4C21O (stereo not drawn)
3,4.15,CC(CCC1(O)OC2CC3C4CC=C5CC(O)CC(OC6OCC(O)C(OC7OCC(O)C(O)C7O)C6OC6OC(C)C(O)C(O)C6O)C5(C)C4CCC3(C)C2C1C)COC1OC(CO)C(O)C(O)C1O (stereo not drawn)
4,3.7,CC1OC(Oc2cc(O)c3c(=O)c(OC4OC(CO)C(O)C(O)C4O)c(-c4ccc(O)cc4)oc3c2)C(O)C(O)C1O (stereo not drawn)
5,3.98,CC1OC(OC2C(O)C(C)OC(OCC3OC(Oc4c(-c5ccc(O)cc5)oc5cc(O)cc(O)c5c4=O)C(O)C(O)C3O)C2O)C(O)C(O)C1O (stereo not drawn)
6,4.01,CC1=C2C(=O)C3C(CC=C4CC(OC5OC(CO)C(O)C(O)C5O)CCC43C)C2CCC12OC1CC(C)CNC1C2C (stereo not drawn)
7,3.69,C=CC1C(OC2OC(CO)C(O)C(O)C2O)OC=C(C(=O)O)C1Cc1nccc2c1[nH]c1ccc(O)cc12 (stereo not drawn)
8,4.71,O=c1cc(-c2ccc(O)cc2)oc2cc(OC3OC(CO)C(O)C(O)C3OC3OCC(O)(CO)C3O)cc(O)c12 (stereo not drawn)
9,4.77,O=C(C=Cc1ccc(O)cc1)OC1C(OC2C(Oc3ccc(-c4cc(=O)c5c(O)cc(O)cc5o4)cc3)OC(C(=O)O)C(O)C2O)OC(C(=O)O)C(O)C1O (stereo not drawn)
10,3.34,CC(O)(CC(=O)O)CC(=O)OCC1OC(Oc2c(-c3ccc(O)cc3)oc3cc(OC4OC(CO)C(O)C(O)C4O)cc(O)c3c2=O)C(O)C(O)C1O (stereo not drawn)
11,7.66,CC(C)=CCCC(C)(OC1OC(CO)C(O)C(O)C1O)C1CCC2(C)C1C(O)CC1C3(C)CCC(OC4OC(CO)C(O)C(O)C4O)C(C)(C)C3CCC12C (stereo not drawn)
12,7.49,CC1(C)CC(=O)C2(C)CCC3(C)C(=CCC4C5(C)CCC(OC6OC(C(=O)O)C(O)C(O)C6OC6OC(CO)C(O)C(O)C6OC6OC(CO)C(O)C(O)C6O)C(C)(CO)C5CCC43C)C2C1 (stereo not drawn)
13,4.88,O=C([O-])CC(=O)OCC1OC(OC2Cc3c(O)cc(O)cc3[O+]=C2c2ccc(O)cc2)C(O)C(O)C1O (stereo not drawn)
14,5.38,CC1OC(OC2C(CO)OC(OCC3OC(OC(=O)C45CCC(C)(C)CC4C4=CCC6C7(C)CCC(OC8OCC(O)C(O)C8OC8OC(C)C(O)C(O)C8O)C(C)(CO)C7CCC6(C)C4(C)CC5)C(O)C(O)C3O)C(O)C2O)C(O)C(O)C1O (stereo not drawn)

# Continued, compound first:
row,SMILES,LC retention time [min]
1,CC(C)=CCc1c(O)cc2c(c1O)C(=O)CC(c1ccccc1)O2 (stereo not drawn),7.58
2,COc1cc(C(=O)OC2CC3CCC(C2)N3)ccc1O (stereo not drawn),3.27
3,COc1cccc(-c2oc3cc(OC)ccc3c(=O)c2O)c1,6.75
4,COc1cc(C2OCC3C(c4cc(OC)c(OC5OC(CO)C(O)C(O)C5O)c(OC)c4)OCC23)cc(OC)c1OC1OC(CO)C(O)C(O)C1O (stereo not drawn),3.61
5,COC1=CC2C3Cc4ccc(OC)c(O)c4C2(CCN3C)CC1=O (stereo not drawn),3.03
6,CC(C)CC(NC(=O)C(N)CO)C(=O)O (stereo not drawn),2.38
7,COc1ccc2cc1Oc1ccc(cc1)CC1=NCCc3cc(OC)c(cc31)Oc1c(OC)c(OC)c([O-])c3c1C(C2)[NH+](C)CC3 (stereo not drawn),3.96
8,CCC1C(=O)OCC1Cc1cncn1C (stereo not drawn),2.4
9,CCCCCC=CCC=CCC=CCCCCC(=O)OCC(O)COP(=O)([O-])OCC[N+](C)(C)C (stereo not drawn),8.85
10,CC=CS(=O)CC(NC(=O)CCC(NCC1(O)OCC(O)C(O)C1O)C(=O)O)C(=O)O (stereo not drawn),1.83
11,O=C(O)C1Cc2c([nH]c3ccccc23)CN1 (stereo not drawn),3.35
12,COc1cc(-c2cc(=O)c3c(O)c(C4OC(CO)C(O)C(O)C4O)c(OC)cc3o2)ccc1O (stereo not drawn),4.21
13,O=C(O)C=C(CC(=O)O)C(=O)O,1.61
14,O=C(C=Cc1ccc(O)c(O)c1)NCCCCN(CCCNC(=O)C=Cc1ccc(O)cc1)C(=O)C=Cc1ccc(O)c(O)c1,5
